Publication PMC5418574, “Facile access to potent antiviral quinazoline heterocycles with fluorescence properties via merging metal-free domino reactions” (Nature Communications, 2017)
Several values for one entry are separate records, joined by “and”; a condition that tells them apart may be missing. Identical values can stand only once. Like-named read-outs stand apart in the source and are kept apart here.

How the values were obtained:
[1] = trypan blue exclusion cytotoxicity assay; type: cell-based; conditions: human, primary HFFs (human foreskin fibroblasts), 0.2-100 μM for 3 days, n=6 (artesunic acid n=3)
Method: (§1) In addition, EC50 values were confirmed using non-GFP-expressing HCMV (strain AD169) by a classical plaque formation assay on HFFs (n=4), providing data consistent with the GFP-based data shown in Table 1, that is, compound 7h, 7.3±0.7 μM; compound 8, 0.3±0.0 μM; compound 9, 0.3±0.1 μM. Moreover, antiviral activity was clearly separated from putative cytotoxic effects because of the results obtained with a standard trypan blue exclusion assay. […] Consistent with these findings are results from a MTS-based cell proliferation assay, showing moderate or no antiproliferative effects on HFFs for all analysed compounds in concentrations up to 30 μM (see Supplementary Fig. 5 and Supplementary Methods). Thus, the new quinazolines and hybrid compounds can be regarded as selective, which is one of the most important aspects in drug design.
Cytotoxicity and Cell Proliferation Assays
Assays measuring distinct parameters of cytotoxicity and/or cell proliferation were performed as described earlier.7, 8 In brief, a trypan blue exclusion assay was performed with cultured cells seeded in 24-well plates and incubated with increasing concentrations of antiviral compounds (range of 0.2 μM to […]
before the percentage of viable cells was determined by microscopic counting (determination at least in triplicates). The cell proliferation assay (CellTiter 96 AQueous One Solution cell proliferation assay; Promega) was performed in a 96-well plate format after a 3-day treatment with compounds under standard conditions of measurement as described by the manufacturer. […]

HCMV AD169-GFP = assay: HCMV GFP-based replication assay (automated GFP fluorometry); type: cell-based, human cytomegalovirus
Method: The measurement of antiviral activity was based on automated fluorometry using a green fluorescent protein (GFP)-expressing, recombinant HCMV (excitation 485 nm, emission 535 nm; see Supplementary Note 2, Supplementary Data 1 and Supplementary Fig. 4 for dose–response curves).
HCMV GFP‐based replication assay and cell proliferation assay. The replication of human cytomegalovirus (HCMV) was determined by an established HCMV GFP-based replication assay as carried out over a duration of approx. seven days (multi-round infection) using cultures of primary human foreskin fibroblasts (HFFs). HFFs were cultivated in 12-well plates for the infection with a GFP-expressing recombinant human cytomegalovirus (HCMV AD169-GFP) and a signal quantitation using automated GFP fluorometry as described before.2-4 All data represent mean values of determinations in quadruplicate (HCMV infections performed in duplicate, GFP measurements of total cell lysates performed in duplicate). Processing and evaluation of data was performed by the use of Excel (means and standard deviations, see Supplementary Figure 4 and Supplementary Data 1). […]

primary HFFs = assay: confocal laser-scanning microscopy of cellular uptake of fluorescent compounds; type: cell-based, human; conditions: 1–10 μM, uninfected or HCMV-infected, 20 h incubation
Method: Figure 7 Microscopy-based visualization of cellular uptake of fluorescent quinazoline compounds. (a) Artesunic acid–quinazoline hybrids 8 and 9. (b–d) Compounds 7h, 7g and 9 were analysed for properties of fluorescence imaging using confocal laser-scanning microscopy. HFFs were cultivated in six-well plates on cover slips and were either directly incubated with compounds by addition to the culture media for 20 h (c) or were added after HCMV infection (b,d; compound addition at 50 h post infection, fixation and analysis of cells 20 h later; scale bar, 10 μm). The chosen concentrations were 10 μM for compounds 7h, 7g and 9, or 1 μM for compound 9 in panels 4, 9 (b), panels 5, 10 (c) and panels 6–10 (d), referring to the compounds' EC50 values of anti-HCMV activity (see Table 1). The depicted images are representative for three independent experiments. Lack of mycoplasm contamination was verified by routine 4,6-diamidino-2-phenylindole staining. General procedures of cell fixation, indirect immunofluorescence staining of proteins (d) and microscopic analysis have been described elsewhere.
When analysing primary HFFs, the fluorescent compounds 7g, 7h and 9 could nicely be depicted both in extracellular (transparent arrows) and intracellular localizations (filled arrows; Fig. 7b,c). […] A nonfluorescent artemisinin-derived control compound (Fig. 7c, panels 2 and 7; see also Supplementary Fig. 6), the DMSO panels (solvent controls) as well as the inspection of different excitation wavelengths of the confocal laser-scanning microscopy confirmed the specificity of signals and a lack of unwarranted cross-fluorescence. […] An indirect immunofluorescence counterstaining of viral and cellular proteins[36][37] led to the detection of nuclear markers, that is, the viral protein kinase pUL97 and cellular lamins type A/C (Fig. 7d, panels 4, 9, 14 or 5, 10, 15, respectively), in the context of extracellular and intracellular fluorescence signals of compounds 7h and 9 (Fig. 7d, panels 1–5 or 6–15, respectively). […]

[2] = test system: non-GFP-expressing HCMV (strain AD169); assay: classical plaque formation assay on HFFs; type: cell-based, human cytomegalovirus; conditions: Human betaherpesvirus 5, AD169, read-out: EC50, plaque formation assay
Method: as §1

[3] = Human betaherpesvirus 5, AD169, read-out: HCMV EC50
[4] = Human betaherpesvirus 5, AD169, read-out: EC50 (sheet Curves)

Row | Structure (SMILES) | CC50 at 3 days [1] [µM] | GFP signal, % of Inf./DMSO, MW (mean) (HCMV AD169-GFP; 0.01 µM) [%] | GFP signal, % of Inf./DMSO, single determination (raw data) (HCMV AD169-GFP; 0.01 µM) | GFP signal, % of Inf./DMSO, MW (mean) (HCMV AD169-GFP; 0.04 µM) [%] | GFP signal, % of Inf./DMSO, single determination (raw data) (HCMV AD169-GFP; 0.04 µM) | GFP signal, % of Inf./DMSO, MW (mean) (HCMV AD169-GFP; 0.12 µM) [%] | GFP signal, % of Inf./DMSO, single determination (raw data) (HCMV AD169-GFP; 0.12 µM) | GFP signal, % of Inf./DMSO, MW (mean) (HCMV AD169-GFP; 0.37 µM) [%] | GFP signal, % of Inf./DMSO, single determination (raw data) (HCMV AD169-GFP; 0.37 µM) | GFP signal, % of Inf./DMSO, MW (mean) (HCMV AD169-GFP; 1.1 µM) [%] | GFP signal, % of Inf./DMSO, single determination (raw data) (HCMV AD169-GFP; 1.1 µM) | GFP signal, % of Inf./DMSO, MW (mean) (HCMV AD169-GFP; 3.3 µM) [%] | GFP signal, % of Inf./DMSO, single determination (raw data) (HCMV AD169-GFP; 3.3 µM) | EC50 (HCMV AD169-GFP; [3]) [µM] | cellular uptake (intracellular fluorescence) (primary HFFs) | GFP signal, % of Inf./DMSO, MW (mean) (HCMV AD169-GFP; 10 µM) [%] | EC50 [2] [µM] | GFP signal, % of Inf./DMSO, single determination (raw data) (HCMV AD169-GFP; 10 µM) | EC50 (HCMV AD169-GFP; [4]) [µM]
1 | Cc1ccc(-c2cc(-c3ccc(C)cc3)c3c(N)ncnc3c2C#N)cc1 [7b] | > 100 | 89 | 90% and 87% and 92% | 89 | 91% and 86% and 89% and 90% | 87 | 98% and 91% and 76% and 82% | 89 | 81% and 82% and 95% and 98% | 62 | 65% and 63% and 64% and 56% | 53 | 55% and 51% and 56% | 9.5 ± 4.8 |  |  |  |  | 
2 | N#Cc1c(-c2ccc(F)cc2)cc(-c2ccc(F)cc2)c2c(N)ncnc12 [7g] | > 100 |  |  |  |  | 93 | 82% and 87% and 122% and 80% | 94 | 94% and 96% and 90% | 79 | 73% and 94% and 71% and 79% | 62 | 61% and 63% and 60% and 66% | 4.9 ± 0.2 | efficient cellular uptake | 10 |  |  | 
3 | N#Cc1c(-c2ccc(C(F)(F)F)cc2)cc(-c2ccc(C(F)(F)F)cc2)c2c(N)ncnc12 [7h] | > 100 |  |  |  |  | 72 | 60% and 89% and 90% and 49% | 71 | 80% and 75% and 61% and 68% | 75 | 61% and 62% and 87% and 89% | 58 | 58% and 67% and 50% and 57% | 4.6 ± 0.9 | efficient cellular uptake | 22 | 7.3 ± 0.7 | 16% and 27% and 28% | 
4 | COc1ccc(-c2cc(-c3ccc(OC)cc3)c3c(N)ncnc3c2C#N)cc1 [7i] | > 100 | 82 | 85% and 84% and 78% | 91 | 100% and 98% and 84% | 83 | 89% and 80% and 75% | 54 | 53% and 57% | 38 | 39% and 42% and 35% | 31 | 28% and 26% and 34% and 35% | 0.6 ± 0.1 |  |  |  |  | 0.56
5 | C[C@@H]1CC[C@H]2[C@@H](C)C(=O)O[C@@H]3O[C@@]4(C)CC[C@@H]1[C@]32OO4 [Artemisinin, reference compound] | > 100 |  |  |  |  |  |  |  |  |  |  |  |  | > 10 |  |  |  |  | 
6 | C[C@H]1[C@H](OC(=O)CCC(=O)O)O[C@@H]2O[C@@]3(C)CC[C@H]4[C@H](C)CC[C@@H]1[C@@]24OO3 [Artesunic acid, reference compound] | 82 ± 0.9 |  |  |  |  |  |  |  |  |  |  |  |  | 3.8 ± 0.4 |  |  |  |  | 
7 | Nc1nc(O)c2ncn(COC(CO)CO)c2n1 [Ganciclovir, reference compound] | > 100 |  |  |  |  |  |  |  |  |  |  |  |  | 2.6 ± 0.5 |  |  |  |  | 
8 | CC1CCC2C(C)C(OC(=O)CCC(=O)OCCCNc3ncnc4c(C#N)c(-c5ccc(F)cc5)cc(-c5ccc(F)cc5)c34)OC3OC4(C)CCC1C32OO4 (stereo not shown) [compound 8] | > 100 | 88 | 102% and 75% and 74% | 90 | 89% and 86% and 90% and 94% | 88 | 93% and 86% and 79% | 73 | 80% and 78% and 68% and 66% | 11 | 10% and 11% and 12% | 7 | 7.61% and 6.36% and 6% and 7% | 0.6 ± 0.1 |  |  | 0.3 |  | 0.64
9 | CC1CCC2C(C)C(OC(=O)CCC(=O)OCCCNc3ncnc4c(C#N)c(-c5ccc(C(F)(F)F)cc5)cc(-c5ccc(C(F)(F)F)cc5)c34)OC3OC4(C)CCC1C32OO4 (stereo not shown) [compound 9] | > 100 | 84 | 73% and 98% and 95% and 70% | 81 | 84% and 89% and 73% and 77% | 49 | 51% and 47% and 53% and 46% | 1.06 | 0.952% and 0.865% and 1.31% and 1.1% | 0.87 | 0.763% and 0.908% and 0.901% |  |  | 0.1 | efficient cellular uptake |  | 0.3 ± 0.1 |  | 
